Where two headings read alike, the source gives them in different places.
Assays:
[1] = Pharmacokinetics after 30 min i.v. infusion, phase I trial in hepatocellular carcinoma patients; assay type: in vivo, human; settings: for Cmax / AUC(0-t) / Tmax / clearance / half-life / Vd: human, iv, plasma; for Cmax: mean ± SD; for AUC(0-t): read-out: AUC0–24 h; for clearance: read-out: CL (clearance) (converted); for half-life: read-out: T1/2 (half-life at the elimination phase) (converted); for Vd: read-out: Vz (volume of distribution)
Description: This multicentre phase I trial of belinostat was done in Hong Kong and Singapore. All patients provided written informed consent according to Good Clinical Practice guidelines, and the protocol was approved by the institutional review boards of Prince of Wales Hospital, Hong Kong and National University Hospital, Singapore.
Venous blood samples had been collected in heparinized tubes. Collected blood samples were centrifuged at 3000 g for 10–15 min and the plasma (supernatant) was separated from the cell pellet and stored in plain tubes at –80°C till analysis. […] Briefly, vorinostat-G was used as the internal standard for belinostat-G. The mass spectrometer was operated in positive ion mode with the optimal mass transitions of belinostat-G: m/z 495>93 and vorinostat-G: m/z 441>232, respectively. The analytical method was well validated with good linearity (coefficient of determination, r^2≥0.999) in the range of 1–100 µM for belinostat-G.
Pharmacokinetic parameters were estimated based on non-compartmental analysis model using WinNonlin software version 5.3 (Pharmsight, Sunnyvale, CA, USA). […] One way analysis of variance (ANOVA) was used to determine the significance among the genotypes with Tukey posthoc tests for adjustment for comparison between individual groups. A value of p<0.05 was considered to be significant.

[2] = tested on: Histone H3 acetylation (Ac-H3 [K9/K14]) in HepG2 cells; experiment: Western blot of acetyl histone H3; assay type: cell-based, human; settings: dose increment after 5 h, time course at 10 µM
Description: Protein concentrations were quantified using the Bradford assay (Invitrogen). Proteins were separated on a 12% SDS-PAGE gel and transferred to nitrocellulose membrane. Nonspecific protein binding was blocked by incubating with 5% non-fat milk (BioRad Laboratories) in 0.1% PBS-Tween (PBST) at room temperature for 1 h and incubated with specific antibodies, Histone H3 and Ac-H3 [K9/K14] (Cell Signaling), at 4°C overnight. Appropriate species-specific Horseradish peroxidises-conjugated secondary antibodies were then added and incubated at room temperature for 1 h followed by detection using an enhanced chemiluminescence kit (GE Healthcare).

UGT1A3 = biological target: T1, UGT1A3 (Homo sapiens, UniProt P35503); experiment: UGT supersome screening; assay type: in vitro ADME; settings: UGT1A3 supersomes, 10 µM belinostat, 37°C
T1 construct: purchased BD Gentest
T1 sequence (P35503 29-534): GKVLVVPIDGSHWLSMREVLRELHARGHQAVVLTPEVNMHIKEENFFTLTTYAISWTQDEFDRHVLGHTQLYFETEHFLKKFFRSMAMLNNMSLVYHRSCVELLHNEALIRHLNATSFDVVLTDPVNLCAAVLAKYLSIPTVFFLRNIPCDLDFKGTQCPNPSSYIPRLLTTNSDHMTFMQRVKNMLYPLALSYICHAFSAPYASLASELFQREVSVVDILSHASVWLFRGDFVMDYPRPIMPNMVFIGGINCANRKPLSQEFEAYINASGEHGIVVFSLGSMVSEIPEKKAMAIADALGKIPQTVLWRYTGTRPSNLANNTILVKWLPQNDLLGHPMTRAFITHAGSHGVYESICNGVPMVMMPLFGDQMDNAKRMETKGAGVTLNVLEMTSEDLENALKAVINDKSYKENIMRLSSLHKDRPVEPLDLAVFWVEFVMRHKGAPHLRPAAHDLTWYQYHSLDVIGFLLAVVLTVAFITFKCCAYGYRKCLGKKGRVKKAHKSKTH
Description: (§1) A typical incubation consisted of 50 µg of UGT, 2 mM UDPGA (UGT Reaction Solution A), 50 mM Tris-HCl, 8 mM MgCl2 and 0.025 mg/ml alamethicin (UGT Reaction Solution B) in a final incubation volume of 100 µL. Before the addition of substrate, the incubation mixture was prewarmed and equilibrated for 5 min at 37°C. […] The incubation mixture was vortexed and centrifuged (10,060 g) at 4°C for 10 min, and the supernatants were analyzed. Insect microsomes without UGT cDNA served as negative control. […] Incubations were performed as described above. Three independent experiments were performed for kinetic analysis.

UGT1A8 = biological target: T2, UGT1A8 (Homo sapiens, UniProt Q9HAW9); experiment: UGT supersome screening; assay type: in vitro ADME; settings: UGT1A8 supersomes, 10 µM belinostat, 37°C
T2 construct: purchased BD Gentest
T2 sequence (Q9HAW9 26-530): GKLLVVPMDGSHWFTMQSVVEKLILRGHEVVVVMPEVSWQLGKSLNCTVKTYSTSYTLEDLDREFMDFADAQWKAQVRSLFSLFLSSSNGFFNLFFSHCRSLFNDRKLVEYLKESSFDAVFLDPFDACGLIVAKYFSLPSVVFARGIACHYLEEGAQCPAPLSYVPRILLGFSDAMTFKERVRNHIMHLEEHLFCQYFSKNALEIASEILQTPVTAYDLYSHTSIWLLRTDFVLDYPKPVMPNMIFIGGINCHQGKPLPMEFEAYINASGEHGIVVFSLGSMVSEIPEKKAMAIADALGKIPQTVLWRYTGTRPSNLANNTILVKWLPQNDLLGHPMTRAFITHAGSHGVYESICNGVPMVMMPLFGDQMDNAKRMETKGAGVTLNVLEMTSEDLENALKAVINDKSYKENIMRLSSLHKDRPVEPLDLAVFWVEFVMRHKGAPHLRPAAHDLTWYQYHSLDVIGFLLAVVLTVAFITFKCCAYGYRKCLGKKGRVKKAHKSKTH
Description: as §1

UGT2B4 = biological target: T3, UGT2B4 (Homo sapiens, UniProt P06133); experiment: UGT supersome screening; assay type: in vitro ADME; settings: UGT2B4 supersomes, 10 µM belinostat, 37°C
T3 construct: purchased BD Gentest
T3 sequence (P06133 24-528): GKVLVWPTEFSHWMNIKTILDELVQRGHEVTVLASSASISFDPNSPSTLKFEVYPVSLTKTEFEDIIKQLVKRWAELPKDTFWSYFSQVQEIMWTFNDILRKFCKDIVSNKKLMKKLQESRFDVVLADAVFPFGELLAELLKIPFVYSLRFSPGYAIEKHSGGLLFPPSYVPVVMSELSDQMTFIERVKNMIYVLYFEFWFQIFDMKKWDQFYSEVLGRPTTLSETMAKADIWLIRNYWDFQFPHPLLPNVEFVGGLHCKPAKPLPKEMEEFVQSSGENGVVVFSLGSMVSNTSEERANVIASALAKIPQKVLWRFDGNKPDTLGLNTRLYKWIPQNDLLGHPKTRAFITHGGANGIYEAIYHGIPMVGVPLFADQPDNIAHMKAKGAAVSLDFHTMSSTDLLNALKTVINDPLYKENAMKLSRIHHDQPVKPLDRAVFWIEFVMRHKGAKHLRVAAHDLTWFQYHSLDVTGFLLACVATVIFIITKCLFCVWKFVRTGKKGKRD
Description: as §1

UGT2B7 = biological target: T4, UGT2B7 (Homo sapiens, UniProt P16662); experiment: UGT supersome screening; assay type: in vitro ADME; settings: UGT2B7 supersomes, 10 µM belinostat, 37°C
T4 construct: purchased BD Gentest
T4 sequence (P16662 24-529): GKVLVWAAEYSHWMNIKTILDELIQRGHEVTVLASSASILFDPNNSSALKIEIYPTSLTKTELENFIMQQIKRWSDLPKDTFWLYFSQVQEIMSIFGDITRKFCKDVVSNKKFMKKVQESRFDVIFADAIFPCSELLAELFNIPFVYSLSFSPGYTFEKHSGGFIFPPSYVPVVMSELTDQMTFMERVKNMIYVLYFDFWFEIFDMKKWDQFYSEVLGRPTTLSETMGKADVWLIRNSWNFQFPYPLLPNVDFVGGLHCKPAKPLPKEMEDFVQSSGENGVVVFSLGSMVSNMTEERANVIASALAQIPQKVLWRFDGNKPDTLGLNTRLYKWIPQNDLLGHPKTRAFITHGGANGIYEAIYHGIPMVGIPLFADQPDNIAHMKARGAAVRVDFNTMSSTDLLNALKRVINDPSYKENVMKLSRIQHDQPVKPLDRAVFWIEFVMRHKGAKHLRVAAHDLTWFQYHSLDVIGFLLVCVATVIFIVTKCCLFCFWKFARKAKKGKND
Description: as §1

[3] = design: method as in Investigator's Brochure, 2004; settings: dogs, ref Investigator's Brochure, 2004, cited from earlier work
[4] = design: method as in Investigator's Brochure, 2004; settings: mice, single IP injection of 20 mg/kg, ref Investigator's Brochure, 2004, cited from earlier work
[5] = design: method as in Investigator's Brochure, 2004; settings: following 5 or 7 days of treatment; ref Investigator's Brochure, 2004; cited from earlier work
[6] = design: method as in Plumb et al., 2003; settings: dogs, 45 minute IV infusion of 50 mg/kg; ref Plumb et al., 2003; cited from earlier work
[7] = cited from earlier work
[8] = design: method as in protocol pharmaceutical information; settings: ref protocol pharmaceutical information, cited from earlier work
CYP1A2 = tested on: CYP1A2; design: method as in protocol pharmaceutical information; settings: ref protocol pharmaceutical information; cited from earlier work
[9] = design: method as in protocol pharmaceutical information; settings: ref protocol pharmaceutical information; cited from earlier work
[10] = human, in vivo; cited from earlier work
[11] = 600 mg/m^2, 30 min i.v. infusion
[12] = 900 mg/m^2, 30 min i.v. infusion
[13] = 1200 mg/m^2, 30 min i.v. infusion
[14] = 1400 mg/m^2, 30 min i.v. infusion
[15] = 150 mg/m2, 30-minute IV infusion, ref phase 1 study currently underway
[16] = 300 mg/m2, 30-minute IV infusion, ref phase 1 study currently underway
[17] = 600 mg/m2, 30-minute IV infusion, ref phase 1 study currently underway
[18] = 900 mg/m2, 30-minute IV infusion, ref phase 1 study currently underway
[19] = 1200 mg/m2, 30-minute IV infusion, ref phase 1 study currently underway

In the case of O=C(/C=C/c1cccc(S(=O)(=O)Nc2ccccc2)c1)NO [Belinostat, N-hydroxy-3-(phenylsulphamoylphenyl) acrylamide], the “coefficient of variation of Clearance (CL)” value ([1]; 1200 mg/m^2) is reported as 29.0%, the “coefficient of variation of Clearance (CL)” value ([1]; 1400 mg/m^2) is reported as 30.6% and the “dose linearity of pharmacokinetics” value ([1]; doses ranging from 600 to 1400 mg/m^2) is reported as “linear pharmacokinetics”. For the same compound, the Cmax [1, 11] was 88.2 ± 8.5 µM, the Cmax [1, 12] was 98.5 ± 29.7 µM and the Cmax [1, 13] was 154 ± 50.4 µM. The Cmax [1, 14] was 174 ± 48.3 µM, the AUC(0-t) ([1]; 600 mg/m^2) was 61.3 ± 1.2 µM·h and the AUC(0-t) ([1]; 900 mg/m^2) was 70 ± 17.3 µM·h. It also gave an AUC(0-t) ([1]; 1200 mg/m^2) of 113 ± 37.1 µM·h, an AUC(0-t) ([1]; 1400 mg/m^2) of 149 ± 46.2 µM·h and a Tmax [1, 11] of 19.8 ± 8.4 min. The clearance [1, 11] was 877 mL/min, the half-life [1, 11] was 212 ± 20.4 min and the Vd [1, 11] was 268 ± 26.6 L. The Tmax [1, 12] was 25.2 ± 8.4 min, the clearance [1, 12] was 1180 mL/min and the half-life [1, 12] was 244 ± 23.4 min. The Vd [1, 12] was 409 ± 76.7 L, the Tmax [1, 13] was 38.4 ± 6 min and the clearance [1, 13] was 910 mL/min. The half-life [1, 13] was 248 ± 25.2 min, the Vd [1, 13] was 305 ± 186 L and the Tmax [1, 14] was 24 ± 8.4 min. It also gave a clearance [1, 14] of 883 mL/min, a half-life [1, 14] of 212 ± 30 min and a Vd [1, 14] of 279 ± 121 L. The “Histone H3 acetylation” value [2] was “time and concentration dependent increase”, the “metabolism by UGT isoform” value (UGT1A3) was “less than 3%” and the “metabolism by UGT isoform” value (UGT1A8) was “less than 3%”. For the same compound, the “metabolism by UGT isoform” value (UGT2B4) was “less than 3%”, the “metabolism by UGT isoform” value (UGT2B7) was “less than 3%” and the “increases in the rate of respiration” value ([3]; 15 mg/kg and 35 mg/kg) was “not significantly different”. The heart rate ([3]; high dose (35 mg/kg)) was “small transient increase in heart rate”, the “electrocardiogram waveform changes (decrease in RR, PR and QT intervals)” value [3] was “not substantially different from the control group” and the mean plasma concentration ([4]; after 0.5 hour) was 3.3 ± 0.7 µM. For the same compound, the mean plasma concentration ([4]; by 2 hours) was 0.042 ± 0.002 µM, the drug accumulation [5] was “no clear indication of drug accumulation” and the “plasma t½” value [6] was “approximately 40 minutes”. The Cmax [7, 15] was 6565 ± 2158 ng/mL, the t1/2 [7, 15] was 46.6 ± 8.7 min and the Cmax [7, 16] was 15505 ± 6245 ng/mL. For the same compound, the t1/2 [7, 16] was 44.6 ± 8.0 min, the Cmax [7, 17] was 31177 ± 8968 ng/mL and the t1/2 [7, 17] was 43.4 ± 6.7 min. The “dose limiting toxicity (DLT)” value ([7]; 600 mg/m2/d, six patients, ref on-going phase 1) was “DLT of severe fatigue”, the Cmax [7, 18] was 53779 ± 6381 ng/mL and the t1/2 [7, 18] was 54.2 ± 8.7 min. The Cmax [7, 19] was 52362 ± 12724 ng/mL, the t1/2 [7, 19] was 85.5 ± 19.6 min and the tolerability ([7]; doses ranging from 150 – 1200 mg/m2, ref phase 1 study currently underway) was “generally been well tolerated”. For the same compound, the “Approximate Solubility” value ([8]; 1,2-propanediol) was ~ 0.2 mg/mL, the “Approximate Solubility” value ([8]; ethanol) was greater than 200 mg/mL and the “Approximate Solubility” value ([8]; polyethylene glycol 400) was ~ 1.5 mg/mL. For the same compound, the CYP1A2 induction (CYP1A2) was “moderate inducer”, the light stability [9] was “no obvious light instability” and the maximum tolerable dose [10] was 1200 mg/m^2.
